Consider 8 compounds from paper PMC11129181, “Histidine-Covalent Stapled Alpha-Helical Peptides Targeting hMcl-1” (Journal of Medicinal Chemistry, 2024).

One data set concerns A549 NucLight Red cells. Briefly: Lytic effect on A549 NucLight Red cells (IncuCyte S3). It is filed as cell-based, human. Conditions: for lytic effect on A549 NucLight Red cells: 100 μM, images 20 min after exposure; for lytic effect on A549 cells: high concentrations, nearly immediate cell bursting after exposure, fluorescence microscopy. The source says:
Amphipathic alpha-helical peptides have been reported to cause nonspecific membrane disruption events due to their constrained helical structure and amino acid composition.[2],[5],[37],[38] Lytic peptides in fact are highly efficient at binding and disrupting the negatively charged membrane of cells, as they are usually amphipathic and positively charged.[2],[5],[37],[38] Key determinants for cell permeability and the lytic effect are the combination of relatively high hydrophobic content and the number of positively charged residues in addition to the position of the staple within the alpha-helical peptide. Therefore, our design strategy included peptides with varying net charges and explored different positions of the staple within the peptide (Tables 1 and 2; Figure 2). To assess cellular permeability and to detect eventual nonspecific cell lytic effects, we tested selected stapled covalent peptides against the human nonsmall cell lung cancer (NSCLC) cell line A549 (Figure 7). To enhance live cell analysis, we used a cell line that was fluorescently labeled (A549 NucLight Red cells, Essen Bioscience), and cells were monitored for cell lysis via fluorescence microscopy using the IncuCyte S3 live-cell analysis system (Figure 7). […] Considering those data, together with the affinity for hMcl-1(172–323), alpha-helical content (Table 2), and covalent complex formation as detected by SDS gel electrophoresis, mass spectrometry, NMR, and X-ray crystallography, we selected agent 155H1, which was further tested in preliminary cell permeability and cellular efficacy studies.
Figure 7 Lytic effect of stapled peptides on the NSCLC A549 NucLight Red cells detected via the IncuCyte S3 live-cell analysis system. The schematic illustrations depict the lytic (panel A) and nonlytic (panel B) effects of stapled agents on the cells. Representative images of cells collected 20 min after exposure to 100 μM lytic stapled compound 1 (panel A) or nonlytic stapled peptide 155H1 (panel B), along with untreated (DMSO only) cells as a control. Note: Images were taken 20 min after plates were placed inside the IncuCyte S3 to minimize condensation that can affect image quality. The scale bar denotes 100 μm.
Nonsmall cell lung cancer (NSCLC) A549 NucLight Red cells were purchased from Essen Bioscience and cultured in Ham’s F-12 nutrient mixture with GlutaMAX-1 (Gibco) supplemented with 10% FBS and 0.5 μg/mL puromycin. Cells were maintained in a humidified incubator at 37 °C in 5% CO2. These cells have nuclei-fluorescently labeled red. Anti-hMcl-1 and anti-β-tubulin antibodies were purchased from Cell Signaling Technology (#5453) and Santa Cruz Biotechnology (sc-58884), respectively. HRP-conjugated goat antimouse and antirabbit secondary antibodies were purchased from ThermoFisher Scientific.

Data set [1] is described as follows: Aqueous solubility (observation). It is filed as physicochemical. Conditions: observed during CD measurements. The source says: (§1) Furthermore, to verify that the peptides preferentially assumed a stabilized alpha-helical conformation in the stapled version compared to the linear peptide, we performed CD measurements. Typical curves for the linear peptide (138E12, blue) and a stapled peptide (155H1, red) are reported in Figure 3, while CD data for all other peptides are reported as the Supporting Information (Supporting Figures S3–S14). Using these measurements and the software BeStSel (https://bestsel.elte.hu),[34] we could calculate the percentage of alpha-helical content for each peptide (Table 2). Most stapled peptides, perhaps except compound 4 and compound 7, assumed nearly complete alpha-helical conformation in aqueous buffer (Table 2 and Supporting Figures S3–S14).

Data set [2] in a line: Circular dichroism, percentage of alpha-helix (BeStSel). Conditions: 25 °C. The data set is classed as physicochemical.
From the text: as §1
Circular dichroism spectra were acquired on a Jasco 815 spectropolarimeter. Samples were prepared in MQ Water or in 15 mM phosphate buffer, pH 7.5. The experiments were conducted at 25 °C, using a 1 mm-path length quartz cell to record data from 190 to 260 nm in 1 nm increments. The response time was 2 s. The data were then converted to Δε(M^–1·cm^–1), and the percentage of alpha-helix was calculated using BeStSel (https://bestsel.elte.hu) software.[34]

In the next data set the target is T1, hMcl-1(172–323) (Homo sapiens, UniProt Q07820).
T1 construct: made in house; host or cells: E. coli BL21 (DE3) gold pLysS
Briefly: DELFIA displacement of biotinylated-BH3 peptide from hMcl-1(172–323). The data set is classed as binding.

[3] abbreviates: DELFIA displacement assay, n = 2, 16 nM 6His-hMcl-1(172–323), protein and peptide preincubated 2 h, room temperature, 1% DMSO, read-out: IC50 (nM) hMcl-1(172–323).

Read-outs that look alike come from different tables or passages of the source. Marks after values point to notes of the source that are not given here. Positions of bridges follow the written chain, without caps; N, C: chain ends. Non-standard residues stand in square brackets, D forms with d. Residues, ends and D or L forms follow the SMILES beside them. *: point of attachment. Benzoyl(2-OMe,5-SO2F) = COc1ccc(S(=O)(=O)F)cc1C(=O)*; Ala(1H-tetrazol-5-yl) = N[C@@H](Cc1nnn[nH]1)C(=O)O; S5 = C=CCCC[C@](C)(N)C(=O)O; Dap = NC[C@H](N)C(=O)O

T1 sequence (Q07820 172-323): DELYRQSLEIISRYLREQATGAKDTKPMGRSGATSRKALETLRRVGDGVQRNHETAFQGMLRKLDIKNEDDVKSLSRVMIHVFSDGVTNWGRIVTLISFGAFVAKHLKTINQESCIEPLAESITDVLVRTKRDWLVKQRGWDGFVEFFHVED
Procedure for hMcl-1(172–323): At the end of a 2 h incubation, plates were washed 3 times. Subsequently, a solution of 6His-tagged-hMcl-1(172–323) or 6His-tagged-hBfl-1(1–149) protein and the test peptides were preincubated for 2 h and added to the washed streptavidin-coated plates along with a Eu–N1-labeled anti-6xHis antibody (PerkinElmer, 1:2000) solution and further incubated for 2 h on a microplate shaker. Plates were then washed 3 times, and each well was incubated with 200 μL of the enhancement solution (PerkinElmer) for 10 min. Fluorescent readings (VICTOR X5 microplate reader) were then measured by using the excitation and emission wavelengths of 340 and 615 nm, respectively. Fluorescent counts were normalized to those of DMSO wells and reported as % inhibition, and Prism 10 (GraphPad) was used to calculate the IC50 values. Protein, peptide, and antibody solutions were prepared in a DELFIA assay buffer (PerkinElmer), and all of the incubations were performed at room temperature. Each well received a final DMSO concentration of 1%. The final concentrations of 6His-tagged-hMcl-1(172–323) and 6His-tagged-hBfl-1(1–149) used were 16 and 15 nM, respectively.

`CC[C@H](C)[C@H](NC(=O)[C@H](CCCNC(=N)N)NC(=O)[C@H](CCCNC(=N)N)NC(=O)[C@H](CC(C)C)NC(=O)[C@H](CCC(N)=O)NC(=O)[C@]1(C)CCC/C=C/CCC[C@](C)(NC(C)=O)C(=O)N[C@@H](CNC(=O)c2cc(S(=O)(=O)F)ccc2OC)C(=O)N[C@@H]([C@@H](C)CC)C(=O)N[C@@H](C)C(=O)N1)C(=O)NCC(=O)N[C@@H](CC(=O)O)C(=O)N[C@@H](CCCNC(=N)N)C(=O)N[C@@H](Cc1ccccc1)C(N)=O` [compound 1] (Ac-[S5][Dap](Benzoyl(2-OMe,5-SO2F))IA[S5]QLRRIGDRF-NH2; staple (E) 1-5): in the data set on A549 NucLight Red cells, the “lytic effect on A549 NucLight Red cells” value is “lytic” and the “lytic effect on A549 cells” value is reported as “lytic effect was observed”.
Turning to `CC[C@H](C)[C@H](NC(=O)[C@H](CNC(=O)c1cc(S(=O)(=O)F)ccc1OC)NC(C)=O)C(=O)N[C@@H](C)C(=O)N[C@@H](CCC(=O)O)C(=O)N[C@@H](CCC(N)=O)C(=O)N[C@@H](CC(C)C)C(=O)N[C@@H](CCCNC(=N)N)C(=O)N[C@@]1(C)CCC/C=C\CCC[C@@](C)(C(=O)N[C@@H](Cc2ccccc2)C(N)=O)NC(=O)[C@H](CC(=O)O)NC(=O)CNC(=O)[C@H]([C@@H](C)CC)NC1=O` [11 (155H1)] (Ac-[Dap](Benzoyl(2-OMe,5-SO2F))IAEQLR[S5]IGD[S5]F-NH2; staple (Z) 8-12), the “lytic effect on A549 NucLight Red cells” value with A549 NucLight Red cells is given as “nonlytic”.
For the compound `CC[C@H](C)[C@H](NC(=O)[C@H](C)NC(=O)[C@H](CCCNC(=N)N)NC(=O)[C@H](CC(C)C)NC(=O)[C@H](CCC(N)=O)NC(=O)[C@]1(C)CCC/C=C/CCC[C@](C)(NC(C)=O)C(=O)N[C@@H](CNC(=O)c2cc(S(=O)(=O)F)ccc2OC)C(=O)N[C@@H]([C@@H](C)CC)C(=O)N[C@@H](C)C(=O)N1)C(=O)NCC(=O)N[C@@H](CC(=O)O)C(=O)N[C@@H](C)C(=O)N[C@@H](Cc1ccccc1)C(N)=O` [compound 4] (Ac-[S5][Dap](Benzoyl(2-OMe,5-SO2F))IA[S5]QLRAIGDAF-NH2; staple (E) 1-5), the aqueous solubility result in data set [1] was “limited aqueous solubility”.
“Ac-Dap(2MeO,5FSB)IAEQLRRIGDRF-CONH2 [138E12, previously reported linear Lys 234-covalent BH3 peptide with aryl-sulfonyl fluoride, reference compound]”: the “% alpha-helix” value in data set [2] (CD spectra measured both in water and in 15 mM phosphate buffer pH 7.5, BeStSel) was 48.3 ^b %.
Turning to “Ac-Dap(2MeO,5FSB)IAEQLRRIGDRF-CONH2 (Ac-[Dap](2‑methoxy‑5‑fluorosulfonylbenzoyl)IAEQLRRIGDRF-NH2) [138E12, previously reported linear Lys 234-covalent BH3 peptide with aryl-sulfonyl fluoride, reference compound]”, the IC50 in the data set with hMcl-1(172–323) (setting [3]) came to 18 ± 4 nM.
“Ac-Dap(2MeO,5FSB)IXEQLXRIGDRF-CONH2 (sidechain bridge or staple) ({Ac-Dap(2MeO,5FSB)}-I[S5]EQL[S5]RIGDRF-NH2; staple 2-6) [compound 10, stapled covalent BH3 peptide, staple at positions 4 and 8]”: in the data set with hMcl-1(172–323) (setting [3]), the IC50 worked out at 174 ± 1 nM. In addition, in data set [2] (CD, 190–260 nm, MQ water or 15 mM phosphate buffer pH 7.5, calculated using BeStSel), the “% alpha-helix” value was 100%.
As to `CC[C@H](C)[C@H](NC(=O)[C@H](CNC(=O)c1cc(S(=O)(=O)F)ccc1OC)NC(C)=O)C(=O)N[C@@H](C)C(=O)N[C@@]1(C)CCC/C=C\CCC[C@@](C)(C(=O)N[C@H](C(=O)NCC(=O)N[C@@H](CC(=O)O)C(=O)N[C@@H](C)C(=O)N[C@@H](Cc2ccccc2)C(N)=O)[C@@H](C)CC)NC(=O)[C@H](CCCNC(=N)N)NC(=O)[C@H](CC(C)C)NC(=O)[C@H](CCC(N)=O)NC1=O` [compound 7] (Ac-[Dap](Benzoyl(2-OMe,5-SO2F))IA[S5]QLR[S5]IGDAF-NH2; staple (Z) 4-8), the aqueous solubility entry in data set [1] is “limited aqueous solubility”.
Regarding `CC[C@H](C)[C@H](NC(=O)[C@H](CCCNC(=N)N)NC(=O)[C@H](CCCNC(=N)N)NC(=O)[C@H](CC(C)C)NC(=O)[C@H](CCC(N)=O)NC(=O)[C@]1(C)CCC/C=C/CCC[C@](C)(NC(C)=O)C(=O)N[C@@H](CNC(=O)c2cc(S(=O)(=O)F)ccc2OC)C(=O)N[C@@H]([C@@H](C)CC)C(=O)N[C@@H](C)C(=O)N1)C(=O)NCC(=O)N[C@@H](Cc1nn[nH]n1)C(=O)N[C@@H](CCCNC(=N)N)C(=O)N[C@@H](Cc1ccccc1)C(N)=O` [compound 2] (Ac-[S5][Dap](Benzoyl(2-OMe,5-SO2F))IA[S5]QLRRIG[Ala(1H-tetrazol-5-yl)]RF-NH2; staple (E) 1-5), at hMcl-1(172–323), the IC50 stood at 633 ± 30 nM. Also, in the data set on A549 NucLight Red cells, the “lytic effect on A549 cells” value is given as “lytic effect was observed”.
